Data as given in patent publication EP0129461B1, “Derivatives of isoindoledicarboxylic acids, their preparation and pharmaceutical compositions thereof” (ADIR, priority 1983, dated 1984).

The molecules below were run on angiotensine convertase (assay: Inhibition of circulating angiotensin convertase in the anaesthetised rat (protocol of D.M. Gross et al.), i.v. dosing). Conditions: I.V. dose inhibiting 50% of the activity of the angiotensine convertase present in the circulation.
Type: in vivo
Description: Les composés de l'invention ont été soumis à une étude pharmacologique chez le rat anesthésié selon le protocole décrit par D.M. GROSS et coll. [J. Phar- macol. and Exp. Ther. 216, 552-557, 1981 )].
La dose I.V. capable d'inhiber 50% de l'activité de l'angiotensine convertase présente dans la circulation (DE50) a été déterminée.

Compound | DE50
CCC[C@H](N[C@@H](C)C(=O)N1CC2CCCCC2[C@@H]1C(=O)O)C(=O)OCC (stereo partly drawn) [Exemple IV, [N-<(S)-éthoxycarbonyl-1 butyl>-(S)alanyl]-2 (R)-carboxy-1 perhydroisoindole] | >300 mg/kg
CCC[C@H](N[C@@H](C)C(=O)N1Cc2ccccc2[C@H]1C(=O)O)C(=O)OCC [Exemple I] | 0,022 mg/kg
CCC[C@H](N[C@@H](C)C(=O)N1Cc2ccccc2[C@@H]1C(=O)O)C(=O)OCC [II, (N-((S)-éthoxycarbonyl-1 butyl)-(S)alanyl]-2 (R)-carboxy-1 isoindoline] | 0,170 mg/kg
CCC[C@H](N[C@@H](C)C(=O)N1CC2CCCCC2[C@H]1C(=O)O)C(=O)OCC (stereo partly drawn) [III, [N-<(S)-éthoxycarbonyl-1 butyl)-(S) alanyl]-2 (S)-carboxy-1 perhydroisoindole, maléate] | 0,020 mg/kg
